Experimental data published in PubChem BioAssay (NCI).
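Dose response: 5 concentrations. Exposure: 48 h. Format: 96-well plates. Endpoint: linear interpolation; highest concentration if not reached. TGI: concentration producing complete growth inhibition.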

Assays:
Test in all cases: NCI tumour cell line growth inhibition, 48 h
COLO 205 colon = test system: COLO 205 colon
MOLT-4 leukemia = test system: MOLT-4 leukemia
SR leukemia = test system: SR leukemia
OVCAR-8 ovarian = test system: OVCAR-8 ovarian
HT29 colon = test system: HT29 colon
SNB-78 CNS = test system: SNB-78 CNS
DMS 273 small cell lung = test system: DMS 273 small cell lung
ACHN renal = test system: ACHN renal
K-562 leukemia = test system: K-562 leukemia
HL-60(TB) leukemia = test system: HL-60(TB) leukemia
HCT-116 colon = test system: HCT-116 colon
DMS 114 small cell lung = test system: DMS 114 small cell lung
LOX IMVI melanoma = test system: LOX IMVI melanoma
HCT-15 colon = test system: HCT-15 colon
EKVX NSCLC = test system: EKVX NSCLC
XF 498 CNS = test system: XF 498 CNS
UACC-257 melanoma = test system: UACC-257 melanoma
M14 melanoma = test system: M14 melanoma
NCI-H23 lung = test system: NCI-H23 lung
RXF 393 renal = test system: RXF 393 renal
MALME-3M melanoma = test system: MALME-3M melanoma
CAKI-1 renal = test system: CAKI-1 renal
RXF-631 renal = test system: RXF-631 renal
IGROV1 ovarian = test system: IGROV1 ovarian
HOP-62 NSCLC = test system: HOP-62 NSCLC
LXFL 529 NSCLC = test system: LXFL 529 NSCLC
SF-268 CNS = test system: SF-268 CNS
SF-295 CNS = test system: SF-295 CNS
SK-MEL-28 melanoma = test system: SK-MEL-28 melanoma
KM12 colon = test system: KM12 colon
M19-MEL melanoma = test system: M19-MEL melanoma
UACC-62 melanoma = test system: UACC-62 melanoma
SNB-75 CNS = test system: SNB-75 CNS
SW-620 colon = test system: SW-620 colon
OVCAR-5 ovarian = test system: OVCAR-5 ovarian
SF-539 CNS = test system: SF-539 CNS
SN12C renal = test system: SN12C renal
A549 NSCLC = test system: A549 NSCLC
SK-MEL-5 melanoma = test system: SK-MEL-5 melanoma
U251 CNS = test system: U251 CNS
786-0 renal = test system: 786-0 renal
SNB-19 CNS = test system: SNB-19 CNS
OVCAR-4 ovarian = test system: OVCAR-4 ovarian
A498 renal = test system: A498 renal
TK-10 renal = test system: TK-10 renal
HCC-2998 colon = test system: HCC-2998 colon
HOP-18 NSCLC = test system: HOP-18 NSCLC
CCRF-CEM leukemia = test system: CCRF-CEM leukemia
NCI-H522 lung = test system: NCI-H522 lung
OVCAR-3 ovarian = test system: OVCAR-3 ovarian
KM20L2 colon = test system: KM20L2 colon
UO-31 renal = test system: UO-31 renal
NCI-H460 lung = test system: NCI-H460 lung
HOP-92 NSCLC = test system: HOP-92 NSCLC
SK-MEL-2 melanoma = test system: SK-MEL-2 melanoma
DLD-1 colon = test system: DLD-1 colon
SK-OV-3 ovarian = test system: SK-OV-3 ovarian
NCI-H226 lung = test system: NCI-H226 lung
RPMI-8226 leukemia = test system: RPMI-8226 leukemia

`CC(C)(C)N=CN1C=Cc2nc3ccccc3cc2C1` was tested, and the TGI (COLO 205 colon) was > 100 µM, the TGI (MOLT-4 leukemia) was > 100 µM and the TGI (SR leukemia) was > 100 µM. The TGI (OVCAR-8 ovarian) was > 100 µM, the TGI (HT29 colon) was > 100 µM and the TGI (SNB-78 CNS) was > 100 µM. The TGI (DMS 273 small cell lung) was > 100 µM, the TGI (ACHN renal) was > 100 µM and the TGI (K-562 leukemia) was > 100 µM. For the same compound, the TGI (HL-60(TB) leukemia) was > 100 µM, the TGI (HCT-116 colon) was > 100 µM and the TGI (DMS 114 small cell lung) was > 100 µM. The TGI (LOX IMVI melanoma) was 73.8 µM, the TGI (HCT-15 colon) was > 100 µM and the TGI (EKVX NSCLC) was > 100 µM. The TGI (XF 498 CNS) was > 100 µM, the TGI (UACC-257 melanoma) was > 100 µM and the TGI (M14 melanoma) was > 100 µM. The TGI (NCI-H23 lung) was > 100 µM, the TGI (RXF 393 renal) was > 100 µM and the TGI (MALME-3M melanoma) was > 100 µM. The TGI (CAKI-1 renal) was > 100 µM, the TGI (RXF-631 renal) was > 100 µM and the TGI (IGROV1 ovarian) was > 100 µM. For the same compound, the TGI (HOP-62 NSCLC) was > 100 µM, the TGI (LXFL 529 NSCLC) was > 100 µM and the TGI (SF-268 CNS) was > 100 µM. For the same compound, the TGI (SF-295 CNS) was > 100 µM, the TGI (SK-MEL-28 melanoma) was > 100 µM and the TGI (KM12 colon) was > 100 µM. For the same compound, the TGI (M19-MEL melanoma) was > 100 µM, the TGI (UACC-62 melanoma) was > 100 µM and the TGI (SNB-75 CNS) was > 100 µM. The TGI (SW-620 colon) was 49.2 µM, the TGI (OVCAR-5 ovarian) was > 100 µM and the TGI (SF-539 CNS) was > 100 µM. The TGI (SN12C renal) was > 100 µM, the TGI (A549 NSCLC) was > 100 µM and the TGI (SK-MEL-5 melanoma) was > 100 µM. The TGI (U251 CNS) was > 100 µM, the TGI (786-0 renal) was > 100 µM and the TGI (SNB-19 CNS) was > 100 µM. For the same compound, the TGI (OVCAR-4 ovarian) was > 100 µM, the TGI (A498 renal) was > 100 µM and the TGI (TK-10 renal) was > 100 µM. The TGI (HCC-2998 colon) was > 100 µM, the TGI (HOP-18 NSCLC) was > 100 µM and the TGI (CCRF-CEM leukemia) was > 100 µM. The TGI (NCI-H522 lung) was > 100 µM, the TGI (OVCAR-3 ovarian) was > 100 µM and the TGI (KM20L2 colon) was > 100 µM. The TGI (UO-31 renal) was > 100 µM, the TGI (NCI-H460 lung) was > 100 µM and the TGI (HOP-92 NSCLC) was > 100 µM. The TGI (SK-MEL-2 melanoma) was > 100 µM, the TGI (DLD-1 colon) was > 100 µM and the TGI (SK-OV-3 ovarian) was > 100 µM.

With `COc1ccc2[nH]c3c(c2c1)[C@H](c1ccccc1)C[C@@H]1C(=O)N(c2ccccc2)C(=O)[C@H]31` the TGI (COLO 205 colon) was > 100 µM, the TGI (MOLT-4 leukemia) was 31.5 µM and the TGI (SR leukemia) was 76.4 µM. The TGI (OVCAR-8 ovarian) was 17.6 µM, the TGI (SNB-78 CNS) was > 100 µM and the TGI (DMS 273 small cell lung) was > 100 µM. The TGI (ACHN renal) was 42.9 µM, the TGI (K-562 leukemia) was > 100 µM and the TGI (HCT-116 colon) was 19 µM. The TGI (DMS 114 small cell lung) was 92.7 µM, the TGI (LOX IMVI melanoma) was > 100 µM and the TGI (HCT-15 colon) was > 100 µM. For the same compound, the TGI (EKVX NSCLC) was > 100 µM, the TGI (XF 498 CNS) was 55.8 µM and the TGI (UACC-257 melanoma) was > 100 µM. For the same compound, the TGI (M14 melanoma) was > 100 µM, the TGI (RXF 393 renal) was 36.1 µM and the TGI (MALME-3M melanoma) was > 100 µM. The TGI (CAKI-1 renal) was 71.7 µM, the TGI (RXF-631 renal) was > 100 µM and the TGI (IGROV1 ovarian) was > 100 µM. The TGI (HOP-62 NSCLC) was 48.8 µM, the TGI (LXFL 529 NSCLC) was > 100 µM and the TGI (SF-268 CNS) was > 100 µM. For the same compound, the TGI (SF-295 CNS) was > 100 µM, the TGI (SK-MEL-28 melanoma) was > 100 µM and the TGI (KM12 colon) was 43.6 µM. The TGI (M19-MEL melanoma) was > 100 µM, the TGI (UACC-62 melanoma) was > 100 µM and the TGI (SNB-75 CNS) was 40.1 µM. The TGI (SW-620 colon) was 49.7 µM, the TGI (OVCAR-5 ovarian) was > 100 µM and the TGI (SF-539 CNS) was > 100 µM. The TGI (SN12C renal) was 33.3 µM, the TGI (A549 NSCLC) was 35.8 µM and the TGI (SK-MEL-5 melanoma) was > 100 µM. The TGI (U251 CNS) was 38.3 µM, the TGI (786-0 renal) was 35.3 µM and the TGI (SNB-19 CNS) was > 100 µM. For the same compound, the TGI (OVCAR-4 ovarian) was 31 µM, the TGI (A498 renal) was 49.6 µM and the TGI (TK-10 renal) was > 100 µM. For the same compound, the TGI (HCC-2998 colon) was > 100 µM, the TGI (HOP-18 NSCLC) was 6.5 µM and the TGI (CCRF-CEM leukemia) was 95.2 µM. The TGI (NCI-H522 lung) was > 100 µM, the TGI (NCI-H226 lung) was 57.6 µM and the TGI (OVCAR-3 ovarian) was 45.6 µM. For the same compound, the TGI (KM20L2 colon) was > 100 µM, the TGI (UO-31 renal) was 52.3 µM and the TGI (NCI-H460 lung) was 84.1 µM. For the same compound, the TGI (HOP-92 NSCLC) was 76.3 µM, the TGI (SK-MEL-2 melanoma) was > 100 µM and the TGI (DLD-1 colon) was > 100 µM. It also gave a TGI (SK-OV-3 ovarian) of 50 µM.

For `N#CCCn1[nH]c(=O)c(Cl)c(Cl)c1=O`, the TGI (COLO 205 colon) was 57.3 µM, the TGI (MOLT-4 leukemia) was 37.4 µM and the TGI (SR leukemia) was 35.5 µM. For the same compound, the TGI (OVCAR-8 ovarian) was 32.9 µM, the TGI (HT29 colon) was 24.2 µM and the TGI (SNB-78 CNS) was 41.9 µM. The TGI (ACHN renal) was 30.7 µM, the TGI (K-562 leukemia) was 28.1 µM and the TGI (HL-60(TB) leukemia) was 35.5 µM. It also gave a TGI (HCT-116 colon) of 29.1 µM, a TGI (DMS 114 small cell lung) of 36.5 µM and a TGI (LOX IMVI melanoma) of 28.3 µM. For the same compound, the TGI (HCT-15 colon) was 24.6 µM, the TGI (EKVX NSCLC) was 12.5 µM and the TGI (XF 498 CNS) was 29.6 µM. The TGI (UACC-257 melanoma) was 37.7 µM, the TGI (NCI-H23 lung) was 29.3 µM and the TGI (RXF 393 renal) was 32.2 µM. For the same compound, the TGI (MALME-3M melanoma) was 33 µM, the TGI (RXF-631 renal) was 37.1 µM and the TGI (IGROV1 ovarian) was 33.6 µM. It also gave a TGI (LXFL 529 NSCLC) of 30.6 µM, a TGI (SF-268 CNS) of 32 µM and a TGI (SF-295 CNS) of 32.1 µM. The TGI (SK-MEL-28 melanoma) was 30.9 µM, the TGI (KM12 colon) was 32.1 µM and the TGI (M19-MEL melanoma) was 42 µM. The TGI (SNB-75 CNS) was 26.7 µM, the TGI (SW-620 colon) was 31.8 µM and the TGI (OVCAR-5 ovarian) was 32.8 µM. The TGI (SF-539 CNS) was 51.1 µM, the TGI (SN12C renal) was 32.5 µM and the TGI (A549 NSCLC) was 59.4 µM. For the same compound, the TGI (U251 CNS) was 30.3 µM, the TGI (786-0 renal) was 39.6 µM and the TGI (SNB-19 CNS) was 29 µM. The TGI (OVCAR-4 ovarian) was 32 µM, the TGI (A498 renal) was 41.2 µM and the TGI (TK-10 renal) was 68.4 µM. The TGI (HCC-2998 colon) was 26 µM, the TGI (HOP-18 NSCLC) was 30.6 µM and the TGI (NCI-H522 lung) was 41.3 µM. The TGI (NCI-H226 lung) was 49.4 µM, the TGI (RPMI-8226 leukemia) was 37.5 µM and the TGI (OVCAR-3 ovarian) was 26.7 µM. For the same compound, the TGI (KM20L2 colon) was 29.7 µM, the TGI (UO-31 renal) was 34.7 µM and the TGI (NCI-H460 lung) was 28.3 µM. For the same compound, the TGI (HOP-92 NSCLC) was 16.6 µM, the TGI (SK-MEL-2 melanoma) was 29.6 µM and the TGI (DLD-1 colon) was 27 µM.
